According to patent publication US6939992B2, “Polymorphic forms of sertraline hydrochloride” (Ciba Specialty Chemicals Corporation, priority 1999, dated 2005):
Structures can show the parent of a compound that is named as a salt.

Experiments:
[1] = Solubility of the polymorphic form; type: physicochemical
[2] = Thermal stability / transformation on heating in a DSC apparatus; type: physicochemical
Description: The crystalline polymorph CSC2 upon heating is transformed into form V at temperatures of about >120° C., whereupon a second transformation takes place into form III at temperatures of about >160° C. (experiment performed in a DSC apparatus with heating rate of 20° C./minute).

[3] = disclosed in U.S. Pat. No. 5,248,699; cited from earlier work
[4] = DSC apparatus, heating rate of 20° C./minute

Row | SMILES | solubility [1] | thermal stability [2] | temperature of second transformation into form III upon heating [2, 4] [°C] | temperature of transformation into form V upon heating [2, 4] [°C] | stability compared with the other crystalline forms of sertraline hydrochloride [3]
1 | CN[C@H]1CC[C@@H](c2ccc(Cl)c(Cl)c2)c2ccccc21 [CSC2, (1S-cis)-4-(3,4-dichlorophenyl)-1,2,3,4-tetrahydro-N-methyl-1-naphthalenamine hydrochloride] | high | good | > 160 | > 120 | 
2 | CN[C@H]1CC[C@@H](c2ccc(Cl)c(Cl)c2)c2ccccc21 [form I, sertraline hydrochloride] |  |  |  |  | greatest stability
